Laboratory results published in US20170029366A1, “INHIBITORS OF HISTONE LYSINE SPECIFIC DEMETHYLASE (LSD1) AND HISTONE DEACETYLASES (HDACS)” (THE JOHNS HOPKINS UNIVERSITY, priority 2014, published 2017).
Values joined by “and” are separate entries in the source; they are usually repeats but may differ in a detail not shown here. Equal entries are not always repeated.

How the values were obtained:
MAO-A = molecular target: T1, MAO-A (Homo sapiens, UniProt P21397); test: MAO-A activity and inhibition assay (peroxidase-coupled, tyramine); format: biochemical
T1 construct: purchased Sigma M 7316
T1 sequence (P21397 1-527): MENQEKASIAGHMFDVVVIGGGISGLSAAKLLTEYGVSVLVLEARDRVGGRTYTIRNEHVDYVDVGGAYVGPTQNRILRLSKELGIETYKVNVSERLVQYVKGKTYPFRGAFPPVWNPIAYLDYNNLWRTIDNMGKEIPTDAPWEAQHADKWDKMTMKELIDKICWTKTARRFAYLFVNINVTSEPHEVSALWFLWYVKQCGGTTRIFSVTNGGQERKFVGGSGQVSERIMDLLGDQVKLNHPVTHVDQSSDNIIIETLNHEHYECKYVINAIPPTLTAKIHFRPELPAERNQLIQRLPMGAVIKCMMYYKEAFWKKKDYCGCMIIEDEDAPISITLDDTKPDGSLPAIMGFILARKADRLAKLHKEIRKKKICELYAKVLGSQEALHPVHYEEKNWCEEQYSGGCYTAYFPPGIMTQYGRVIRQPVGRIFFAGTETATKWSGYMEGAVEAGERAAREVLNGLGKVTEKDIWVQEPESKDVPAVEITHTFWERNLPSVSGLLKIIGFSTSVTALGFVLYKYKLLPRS

MAO-B = molecular target: T2, MAO-B (Homo sapiens, UniProt P27338); test: MAO-B activity and inhibition assay (peroxidase-coupled, tyramine); format: biochemical
T2 construct: purchased Sigma M 7441
T2 sequence (P27338 1-520): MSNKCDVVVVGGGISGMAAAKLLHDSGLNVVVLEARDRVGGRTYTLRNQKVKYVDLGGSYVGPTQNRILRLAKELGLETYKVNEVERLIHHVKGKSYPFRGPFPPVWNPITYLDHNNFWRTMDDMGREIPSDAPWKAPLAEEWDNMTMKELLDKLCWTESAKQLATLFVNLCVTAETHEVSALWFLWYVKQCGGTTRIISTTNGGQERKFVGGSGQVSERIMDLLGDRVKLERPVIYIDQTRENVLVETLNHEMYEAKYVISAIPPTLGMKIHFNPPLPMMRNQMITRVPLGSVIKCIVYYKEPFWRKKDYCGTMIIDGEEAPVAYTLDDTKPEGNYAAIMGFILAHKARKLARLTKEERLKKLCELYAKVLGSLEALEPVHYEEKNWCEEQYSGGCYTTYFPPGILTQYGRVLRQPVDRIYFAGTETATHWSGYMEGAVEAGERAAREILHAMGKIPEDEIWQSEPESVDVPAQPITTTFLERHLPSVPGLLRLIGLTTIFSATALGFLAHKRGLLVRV

H3K4Me2 in LNCaP cells = test: Western blot of histone H3 marks in LNCaP cells; format: cell-based
H3K4Me2 in H460 cells = test: Western blot of H3K4Me2 in H460 cells; format: cell-based; conditions: 48 h, compared with LNCaP
H3K4Me2 in A549 cells = test: Western blot of H3K4Me2 in A549 cells; format: cell-based; conditions: 48 h
H3K4Me2 in MB-231 cells = test: Western blot of H3K4Me2 in MB-231 cells; format: cell-based; conditions: 48 h
H460 cells = test: [3H] thymidine incorporation assay in H460 cells; format: cell-based; conditions: Homo sapiens, NCI-H460, 48 h, read-out: IC50 of cellular proliferation rate (3H-thymidine incorporation)
LNCaP cells = test: [3H] thymidine incorporation assay in LNCaP cells; format: cell-based; conditions: Homo sapiens, 48 h, read-out: IC50 of cellular proliferation rate (3H-thymidine incorporation)
[1] = tested on: Immature primary cortical neurons; test: Oxidative toxicity (HCA) and neuron viability assay (MTT); format: cell-based, Sprague Dawley rats; conditions: 0.5 μM, 5 mM HCA, MTT
GST-LSD1 [2] = molecular target: T3, GST-LSD1 (Homo sapiens, UniProt O60341)
GST-LSD1 [3] = molecular target: T3, GST-LSD1; test: MassSQUIRM LSD1 inhibition assay; format: biochemical; design: made in house; host or cells: E. coli; conditions: 50 μM inhibitor, 215 nM GST-LSD1, 30 min, 25° C.

k(inact) (MAO-A): 0.30 ± 0.11 min⁻¹
k(inact) (MAO-B): 0.26 ± 0.14 min⁻¹
EC50 (H3K4Me2 in LNCaP cells; Homo sapiens, 48 h, Western blot, read-out: EC50 of increase in H3K4Me2 signal): ~2 µM
IC50 (H460 cells): 14 µM
IC50 (LNCaP cells): 16 µM
k(inact) (GST-LSD1 [2]; GST-LSD1, peroxidase-coupled assay, dihydrochloride): 0.15 min⁻¹ and 0.15 ± 0.017 min⁻¹
LSD1 inhibitory potency (in words) (GST-LSD1 [2]; structure-activity comment on Table 1): most potent LSD1 inhibitor
LSD1 inhibition in MassSQUIRM assay (in words) (GST-LSD1 [3]): very substantial LSD1 inhibition
SMILES: Cl.Cl.NNCCc1ccc(NC(=O)CCCc2ccccc2)cc1 [Compound 12d, N-[4-(2-Hydrazinylethyl)phenyl]-4-phenylbutanamide dihydrochloride]
time of compound exposure at which changes in H3K4Me2 could be detected (H3K4Me2 in LNCaP cells; 10 μM): ≤ 6 h
effects on H3K4Me2 levels (in words) (H3K4Me2 in H460 cells): comparable dose-response effects
concentration required for reproducible increases in H3K4Me2 (H3K4Me2 in A549 cells): 20 µM
concentration required for reproducible increases in H3K4Me2 (H3K4Me2 in MB-231 cells): 20 µM
survival of neurons after HCA-treatment [1]: significantly enhanced survival of neurons
